Source: ChEMBL document CHEMBL1201862, “PubChem BioAssay data set” (2004)
The source made the active and inactive calls.

How the values were obtained:
[1] = Luminescence Cell-Based Dose Retest to Confirm Inhibitors of Cancer Stem Cells. [Related pubchem assays (depositor defined):AID2717, AID2721]; type: functional; details: Homo sapiens
[2] = NIH3T3 cell viability loss – ATP luminescence, mouse fibroblasts, counter-screen, dose response (AID 2010); type: functional, cell-based;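 further: cells exposed to compound for about 90 hours before reading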
[3] = Trypanosoma cruzi growth suppression in host cells – NIH3T3 host cells, beta-gal luminescence, confirmation (AID 2044); type: functional, cell-based;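 further: intracellular parasites grown in NIH/3T3 mouse fibroblasts as host cells; luminescent beta-galactosidase reporter signal from transgenic T. cruzi replicating inside host cells; inhibitors lower the luminescence signal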
[4] = molecular target: Heat shock protein HSP 90-alpha (Homo sapiens, UniProt P07900); type: functional, organism-based
[5] = microbe, parasite or virus in culture; type: functional; details: Mycobacterium tuberculosis
[6] = blockers of CRF-binding protein–CRF-R2 complex – cell-based, uHTS hits, 384-well, dose response (AID 651639); type: functional, Homo sapiens; details: read-out: IC50_Mean
[7] = molecular target: T1, Corticotropin-releasing factor receptor 2/Corticotropin-releasing factor-binding protein (Homo sapiens, UniProt P24387+Q13324); test: Dose Response confirmation of uHTS hits for small molecule antagonists of the CRF-binding protein and CRF-R2 receptor complex.; type: functional; details: read-out: IC50_Mean
T1 sequence (Q13324 whole entry): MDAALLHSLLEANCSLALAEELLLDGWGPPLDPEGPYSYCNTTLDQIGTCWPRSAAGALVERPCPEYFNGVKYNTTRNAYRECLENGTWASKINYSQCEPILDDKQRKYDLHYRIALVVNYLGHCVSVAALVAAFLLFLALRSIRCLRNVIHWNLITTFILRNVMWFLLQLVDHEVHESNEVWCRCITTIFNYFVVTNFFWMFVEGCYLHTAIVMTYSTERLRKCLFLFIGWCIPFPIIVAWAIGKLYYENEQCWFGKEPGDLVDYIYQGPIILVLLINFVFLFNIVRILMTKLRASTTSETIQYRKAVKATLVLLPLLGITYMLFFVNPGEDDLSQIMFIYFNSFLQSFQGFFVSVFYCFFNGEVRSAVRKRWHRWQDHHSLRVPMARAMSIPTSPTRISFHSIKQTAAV
T1 sequence (P24387 whole entry): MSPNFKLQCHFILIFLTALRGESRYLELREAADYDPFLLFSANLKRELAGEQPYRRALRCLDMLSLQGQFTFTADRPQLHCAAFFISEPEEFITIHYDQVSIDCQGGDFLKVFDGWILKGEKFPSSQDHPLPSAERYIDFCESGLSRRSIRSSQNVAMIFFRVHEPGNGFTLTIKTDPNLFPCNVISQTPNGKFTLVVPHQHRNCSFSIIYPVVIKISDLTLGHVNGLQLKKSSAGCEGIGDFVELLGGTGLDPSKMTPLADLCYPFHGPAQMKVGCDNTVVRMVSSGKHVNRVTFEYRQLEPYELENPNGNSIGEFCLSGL

[8] = molecular target: T1, Corticotropin-releasing factor receptor 2/Corticotropin-releasing factor-binding protein; test: activators of CRF receptor 2 with binding protein – uHTS hits, confirmation (AID 602473); type: functional; details: read-out: EC50_Mean
[9] = HIV-1 Vif–A3G interaction blockers – biochemical, TR-FRET, GST-Vif 1-94, biotin-A3G peptide, dose response retest, primary screen (AID 1117319); type: functional;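 further: TR-FRET signal of purified GST-Vif binding a biotinylated A3G peptide; inhibitors lower the FRET signal by blocking Vif and A3G binding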
[10] = blockers of HIV-1 envelope-mediated cell-cell fusion – cherry-pick, dose response (AID 652057); type: functional, cell-based
[11] = viability loss in CEM21 cells – cell-based, CellTiter-Glo luminescence, cherry-picked, cytotoxicity control for viral fusion inhibitor project, dose response (AID 652042); type: functional;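 further: potency for signal decrease meaning cytotoxicity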
[12] = blockers of HIV-1 ZM109 envelope-driven cell-cell fusion – HeLa effector, CEM target cells, luciferase, cherry-pick, dose response (AID 652058); type: functional, cell-based;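 further: luciferase signal from HIV-1 Env mediated cell-cell fusion of effector and target cells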
[13] = HIV-1 AD8 envelope cell-cell fusion blockers – cherry-pick, dose response (AID 652062); type: functional, cell-based;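 further: luciferase signal from cell-cell fusion driven by HIV-1 clade B AD8 Env; potency is for inhibitors of fusion seen as a drop in luminescence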
[14] = molecular target: T2, Heat shock factor protein 1 (Mus musculus, UniProt P38532); test: enhancement of HSF1-driven luciferase signal – cell-based, NIH3T3, luminescence, dose retest, confirmation (AID 435004); type: functional;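 further: stress induced by proteasome inhibitor MG132 added 30 min after compound; luciferase reporter driven by HSF1 response element in NIH3T3 cells; actives raise luminescence as potentiators of the MG132 stress response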
T2 sequence (P38532 whole entry): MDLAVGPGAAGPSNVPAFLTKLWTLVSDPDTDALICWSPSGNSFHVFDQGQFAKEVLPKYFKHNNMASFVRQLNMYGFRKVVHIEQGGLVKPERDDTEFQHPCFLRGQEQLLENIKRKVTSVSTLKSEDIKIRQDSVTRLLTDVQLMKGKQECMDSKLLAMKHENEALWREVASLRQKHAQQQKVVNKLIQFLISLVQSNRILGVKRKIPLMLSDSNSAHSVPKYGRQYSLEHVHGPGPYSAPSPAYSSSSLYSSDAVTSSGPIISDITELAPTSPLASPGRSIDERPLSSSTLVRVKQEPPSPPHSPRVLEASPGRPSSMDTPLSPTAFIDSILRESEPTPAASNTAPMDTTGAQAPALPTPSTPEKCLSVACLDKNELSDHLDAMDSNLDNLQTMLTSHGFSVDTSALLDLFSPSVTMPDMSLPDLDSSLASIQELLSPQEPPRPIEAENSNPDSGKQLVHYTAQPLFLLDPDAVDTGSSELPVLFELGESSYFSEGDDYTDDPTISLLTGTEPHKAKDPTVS

[15] = off-target signal loss in HeLa-CEM21 co-culture – HeLa F-luc CTL cells, cherry-picked, counter-screen for HIV-1 Env fusion inhibitor project, dose response (AID 652040); type: functional, cell-based;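 further: potency for signal decrease marking cytotoxic or nonspecific inhibition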
[16] = molecular target: Luciferin 4-monooxygenase (Photinus pyralis, UniProt P08659); test: inhibition of purified Photinus pyralis luciferase – biochemical, luminescence, dose response (AID 1891)
[17] = Luminescence Cell-Based Dose Confirmation HTS to Identify Inhibitors of Platelet Dense Granule Release. [Related pubchem assays: 1663 (Primary HTS), 1678 (Summary of Project)]; type: functional
[18] = molecular target: T3, Acyl-homoserine lactone acylase PvdQ (Pseudomonas aeruginosa (strain LESB58), UniProt Q9I194); test: PvdQ acylase enzyme activity blockers – biochemical, fluorescence, plate reader and imaging, cherry-picks, dose response (AID 493231)
T3 sequence (Q9I194 whole entry): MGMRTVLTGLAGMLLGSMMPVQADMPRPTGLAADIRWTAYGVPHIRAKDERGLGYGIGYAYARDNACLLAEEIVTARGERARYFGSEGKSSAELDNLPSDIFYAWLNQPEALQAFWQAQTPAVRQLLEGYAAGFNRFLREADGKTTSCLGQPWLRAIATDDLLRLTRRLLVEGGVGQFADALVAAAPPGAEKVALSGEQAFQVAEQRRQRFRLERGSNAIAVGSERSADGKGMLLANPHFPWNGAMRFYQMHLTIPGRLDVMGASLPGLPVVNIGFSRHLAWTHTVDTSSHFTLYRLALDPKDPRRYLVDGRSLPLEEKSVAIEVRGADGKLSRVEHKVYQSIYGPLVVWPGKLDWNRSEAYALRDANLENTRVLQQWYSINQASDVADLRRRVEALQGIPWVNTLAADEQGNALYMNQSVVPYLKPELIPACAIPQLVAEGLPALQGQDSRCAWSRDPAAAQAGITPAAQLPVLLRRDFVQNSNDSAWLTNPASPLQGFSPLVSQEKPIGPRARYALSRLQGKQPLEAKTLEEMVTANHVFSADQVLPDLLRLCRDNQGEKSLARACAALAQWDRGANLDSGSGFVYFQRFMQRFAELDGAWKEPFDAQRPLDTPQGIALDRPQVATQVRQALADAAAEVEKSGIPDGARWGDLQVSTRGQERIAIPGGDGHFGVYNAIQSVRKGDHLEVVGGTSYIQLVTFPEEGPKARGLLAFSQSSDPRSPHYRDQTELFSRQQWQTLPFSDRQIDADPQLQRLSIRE

Sequence of Luciferin 4-monooxygenase (P08659 whole entry): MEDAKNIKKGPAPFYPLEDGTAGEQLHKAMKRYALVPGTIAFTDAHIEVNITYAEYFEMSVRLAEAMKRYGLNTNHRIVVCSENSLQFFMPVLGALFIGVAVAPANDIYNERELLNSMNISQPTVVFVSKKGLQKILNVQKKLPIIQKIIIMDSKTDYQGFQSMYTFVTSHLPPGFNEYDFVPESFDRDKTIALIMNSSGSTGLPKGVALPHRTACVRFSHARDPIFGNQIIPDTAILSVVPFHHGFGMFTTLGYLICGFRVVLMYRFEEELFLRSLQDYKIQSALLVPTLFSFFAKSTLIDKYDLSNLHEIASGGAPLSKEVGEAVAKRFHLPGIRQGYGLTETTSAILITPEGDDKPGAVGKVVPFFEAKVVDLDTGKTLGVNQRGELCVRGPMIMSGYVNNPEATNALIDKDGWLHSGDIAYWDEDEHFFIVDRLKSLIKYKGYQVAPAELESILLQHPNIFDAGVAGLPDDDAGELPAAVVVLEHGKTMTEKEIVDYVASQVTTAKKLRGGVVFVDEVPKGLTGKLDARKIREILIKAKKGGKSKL

CCc1ccc(-c2cc(C(=O)N3N=C(C(F)F)CC3(O)C(F)F)c3ccccc3n2)cc1 (stereo unspecified)
AC50 [1]: 5.74 µM (active)
EC50 [2]: > 60 µM (not active)
EC50 [3]: 2.9 µM (active)
AC50 [4]: 4.04 µM (active)

CC(=O)C1=C(C)NC(SCC(=O)c2ccc(F)cc2)=C(C#N)C1c1ccco1 (stereo unspecified)
CC50 [5]: 39.2 µM (active)

O=S(=O)(c1ccc(Cl)cc1)N1CCC(n2cnc3cc(C(F)(F)F)ccc32)CC1
AC50 [1]: 0.552 µM (active)
EC50 [2]: > 60 µM (not active)
EC50 [3]: 2.04 µM (active)
CC50 [5]: > 40 µM (active)

COc1ccc([N+](=O)[O-])cc1NCc1ccccc1
IC50 [6]: 14.5 µM (active)
IC50 [7]: 12 µM (active)
EC50 [8]: > 53 µM (inactive)

CCN(CC)S(=O)(=O)c1ccc(Cl)c(NC(=O)c2cc(Cl)cc(Cl)c2)c1
IC50 [6]: > 20 µM (inactive)
IC50 [7]: 3.26 µM (active)
EC50 [8]: > 53 µM (inactive)

O=C1c2ccccc2C(Nc2ccc(F)c(Cl)c2)N1c1ccccn1 (stereo unspecified)
IC50 [9]: > 100 µM (active)

Cc1ccc(C(C(=O)NC2CCCCC2)N(C(=O)Cc2c[nH]c3ccccc23)c2ccccc2)o1 (stereo unspecified)
AC50 [10]: 4.14 µM (active)
EC50 [2]: > 60 µM (not active)
AC50 [11]: 47.4 µM (active)
EC50 [3]: 1.6 µM (active)
AC50 [12]: 2.63 µM (active)
AC50 [13]: 6.79 µM (active)
EC50 [14]: > 260 µM (inactive)
AC50 [15]: 10.3 µM (active)

CC(C)(C)c1ccc(C(=O)N2CCN(CCNC(=O)C(=O)NCc3ccc(Cl)cc3)CC2)cc1
EC50 [2]: > 30 µM (not active)
EC50 [3]: 3.43 µM (active)
CC50 [5]: > 40 µM (active)

Cc1nc2ccccc2n1CC(=O)NCc1ccccc1
AC50 [13]: 16.8 µM (active)
AC50 [15]: > 70 µM (inactive)

Cc1ccc2nc(-c3ccncc3)cc(-c3ccccc3)c2c1
CC50 [5]: > 40 µM (active)

O=C(NC(=O)c1ccccc1)Nc1ccccn1
AC50 [10]: 2.44 µM (active)
AC50 [11]: 39.1 µM (active)
AC50 [12]: 37.7 µM (active)
AC50 [13]: 6.09 µM (active)
AC50 [15]: 9.35 µM (active)
EC50 [16]: 4.17 µM (active)
EC50 [17]: 2.1 µM (active)

CCCc1ccc(C2=Nn3c(nnc3C(C)C)SC2)cc1
CC50 [5]: > 40 µM (active)

CC(C)Oc1ccc(Nc2ncnc3ccccc23)cc1
AC50 [18]: 16.3 µM (active)

O=C1OC(c2ccccc2)c2ccccc21 (stereo unspecified)
AC50 [18]: 97.9 µM (active)

Cc1ccc2c(c1C)NC(=O)C2(O)CC(=O)c1ccc2c(c1)OCO2 (stereo unspecified)
IC50 [9]: > 100 µM (active)
